Measurements published in BindingDB's records for doi:10.1016/j.bmcl.2009.03.071 (Wyeth Research, 2009).

How the values were obtained:
Experiment in all cases: Radioligand Binding Assay (Ki)
Conditions in all cases: pH 7.4; 22 °C
[1] = molecular target: D(2) dopamine receptor (Homo sapiens, UniProt P14416)
Protocol: (§1) Competition experiments were performed in the presence radioligand with membrane protein (obtained from cells expressing the receptor) and test compounds. The mixture was incubated at room temperature for 60 min and the reaction stopped by rapid filtration onto a 96-well GF/B filter using a Packard Filtermate harvester. Radioactivity retained on the filters was measured by liquid scintillation in a Packard TopCount. IC50 values for test compounds were determined from nonlinear regression analysis of data collected from ligand binding experiments. The inhibition constant (Ki) was calculated from IC50 value by the Cheng and Prusoff equation.

[2] = molecular target: 5-hydroxytryptamine receptor 7 (Homo sapiens, UniProt P34969)
Protocol: as §1

[3] = molecular target: 5-hydroxytryptamine receptor 1D (Homo sapiens, UniProt P28221)
Protocol: as §1

[4] = molecular target: T1, 5-hydroxytryptamine receptor 1A (Homo sapiens, UniProt P08908)
T1 sequence (P08908 whole entry): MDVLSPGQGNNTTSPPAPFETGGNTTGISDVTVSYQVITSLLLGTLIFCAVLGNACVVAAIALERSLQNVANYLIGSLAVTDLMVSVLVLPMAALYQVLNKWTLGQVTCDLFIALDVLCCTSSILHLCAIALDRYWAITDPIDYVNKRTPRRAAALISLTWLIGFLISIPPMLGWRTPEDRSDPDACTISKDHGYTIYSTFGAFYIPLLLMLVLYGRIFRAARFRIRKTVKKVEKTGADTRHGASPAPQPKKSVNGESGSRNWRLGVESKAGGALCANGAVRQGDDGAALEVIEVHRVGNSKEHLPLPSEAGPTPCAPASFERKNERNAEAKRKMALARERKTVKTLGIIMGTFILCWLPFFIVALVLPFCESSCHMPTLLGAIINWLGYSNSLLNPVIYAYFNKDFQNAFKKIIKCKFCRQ
Protocol: as §1

[5] = molecular target: 5-hydroxytryptamine receptor 2B (Homo sapiens, UniProt P41595)
Protocol: as §1

[6] = molecular target: T2, 5-hydroxytryptamine receptor 2C (Homo sapiens, UniProt P28335)
T2 sequence (P28335 whole entry): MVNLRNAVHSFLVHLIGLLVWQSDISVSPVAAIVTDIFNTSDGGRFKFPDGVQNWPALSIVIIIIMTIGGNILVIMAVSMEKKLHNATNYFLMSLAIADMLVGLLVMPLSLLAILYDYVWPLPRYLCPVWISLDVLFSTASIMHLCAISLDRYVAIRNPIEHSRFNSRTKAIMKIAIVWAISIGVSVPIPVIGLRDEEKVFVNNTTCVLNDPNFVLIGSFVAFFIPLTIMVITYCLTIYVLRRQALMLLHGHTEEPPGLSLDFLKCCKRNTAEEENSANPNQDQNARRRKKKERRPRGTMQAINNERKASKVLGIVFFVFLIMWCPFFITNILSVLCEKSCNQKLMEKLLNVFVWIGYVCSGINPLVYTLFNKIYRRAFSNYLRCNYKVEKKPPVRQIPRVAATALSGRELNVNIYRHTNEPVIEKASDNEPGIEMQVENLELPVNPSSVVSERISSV
Protocol: as §1

[7] = molecular target: 5-hydroxytryptamine receptor 1B (Homo sapiens, UniProt P28222)
Protocol: as §1

Sequence of 5-hydroxytryptamine receptor 1D (P28221 whole entry): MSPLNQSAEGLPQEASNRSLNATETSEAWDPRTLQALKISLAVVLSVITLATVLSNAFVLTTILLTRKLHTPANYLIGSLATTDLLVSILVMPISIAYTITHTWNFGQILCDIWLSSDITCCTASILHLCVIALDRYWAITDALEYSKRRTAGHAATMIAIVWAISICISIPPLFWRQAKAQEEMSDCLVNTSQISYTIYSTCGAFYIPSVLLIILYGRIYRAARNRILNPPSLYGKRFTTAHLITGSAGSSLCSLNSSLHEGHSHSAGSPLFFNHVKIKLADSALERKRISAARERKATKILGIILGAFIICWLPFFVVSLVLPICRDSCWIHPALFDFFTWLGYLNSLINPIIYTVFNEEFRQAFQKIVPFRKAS
Sequence of 5-hydroxytryptamine receptor 7 (P34969 whole entry): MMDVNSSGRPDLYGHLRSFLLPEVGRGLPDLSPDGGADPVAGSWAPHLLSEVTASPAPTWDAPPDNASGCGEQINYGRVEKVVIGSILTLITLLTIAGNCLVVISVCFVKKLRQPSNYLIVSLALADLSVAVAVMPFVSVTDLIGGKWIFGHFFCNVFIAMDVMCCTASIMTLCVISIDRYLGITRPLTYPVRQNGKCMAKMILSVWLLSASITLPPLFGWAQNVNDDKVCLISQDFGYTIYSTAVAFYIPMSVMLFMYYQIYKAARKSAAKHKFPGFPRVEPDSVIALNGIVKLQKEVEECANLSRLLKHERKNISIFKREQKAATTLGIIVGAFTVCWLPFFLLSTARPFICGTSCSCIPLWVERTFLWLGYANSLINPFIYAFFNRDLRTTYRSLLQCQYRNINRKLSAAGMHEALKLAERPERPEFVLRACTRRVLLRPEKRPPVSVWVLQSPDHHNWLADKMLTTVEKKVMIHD
Sequence of D(2) dopamine receptor (P14416 whole entry): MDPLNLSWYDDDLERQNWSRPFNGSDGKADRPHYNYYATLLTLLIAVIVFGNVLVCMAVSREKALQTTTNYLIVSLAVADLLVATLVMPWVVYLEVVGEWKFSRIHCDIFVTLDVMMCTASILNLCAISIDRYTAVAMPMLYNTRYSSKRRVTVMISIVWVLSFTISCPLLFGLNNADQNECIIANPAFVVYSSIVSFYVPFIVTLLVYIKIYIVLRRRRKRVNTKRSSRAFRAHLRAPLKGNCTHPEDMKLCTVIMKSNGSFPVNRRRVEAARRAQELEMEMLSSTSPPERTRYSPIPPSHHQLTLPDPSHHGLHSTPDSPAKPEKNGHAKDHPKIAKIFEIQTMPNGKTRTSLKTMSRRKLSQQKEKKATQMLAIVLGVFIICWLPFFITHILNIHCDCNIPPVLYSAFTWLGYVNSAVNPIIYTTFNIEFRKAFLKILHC
Sequence of 5-hydroxytryptamine receptor 2B (P41595 whole entry): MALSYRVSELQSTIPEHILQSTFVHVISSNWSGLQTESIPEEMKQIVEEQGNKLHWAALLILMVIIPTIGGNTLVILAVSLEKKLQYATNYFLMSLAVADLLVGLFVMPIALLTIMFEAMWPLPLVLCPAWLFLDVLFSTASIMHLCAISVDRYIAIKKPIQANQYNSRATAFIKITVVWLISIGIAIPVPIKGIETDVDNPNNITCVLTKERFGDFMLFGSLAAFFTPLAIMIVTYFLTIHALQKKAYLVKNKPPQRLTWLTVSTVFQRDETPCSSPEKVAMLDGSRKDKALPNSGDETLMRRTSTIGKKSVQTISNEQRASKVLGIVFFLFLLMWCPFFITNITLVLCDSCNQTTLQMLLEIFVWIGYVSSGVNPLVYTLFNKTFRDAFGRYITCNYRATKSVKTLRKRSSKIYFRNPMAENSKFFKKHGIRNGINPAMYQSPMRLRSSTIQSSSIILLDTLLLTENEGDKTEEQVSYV
Sequence of 5-hydroxytryptamine receptor 1B (P28222 whole entry): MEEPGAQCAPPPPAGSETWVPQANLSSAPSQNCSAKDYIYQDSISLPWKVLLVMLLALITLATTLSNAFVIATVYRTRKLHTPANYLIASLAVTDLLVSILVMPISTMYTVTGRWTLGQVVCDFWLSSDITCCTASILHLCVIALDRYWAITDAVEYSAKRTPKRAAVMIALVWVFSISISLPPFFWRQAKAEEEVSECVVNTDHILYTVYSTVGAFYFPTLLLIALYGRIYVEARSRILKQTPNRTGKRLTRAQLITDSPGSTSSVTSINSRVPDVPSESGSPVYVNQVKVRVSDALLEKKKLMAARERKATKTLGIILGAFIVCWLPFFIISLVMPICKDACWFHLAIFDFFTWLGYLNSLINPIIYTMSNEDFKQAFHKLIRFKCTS

Ki [1]: > 2 µM
Ki [2]: 5.1 µM
Ki [3]: > 2 µM
Ki [4]: 6.4 µM
Ki [5]: 0.155 µM
Ki [6]: > 2 µM
Ki [7]: > 2 µM
SMILES: NCCC(=O)Nc1ccc2cnn(S(=O)(=O)c3cccc4ccccc34)c2c1 [3-amino-N-[1-(naphthalene-1-sulfonyl)-1H-indazol-6-yl]propanamide]
